Experimental data published in US7678386B2, “Liposomes coated with selected antibodies that bind to aminophospholipids” (Board of Regents the University of Texas, priority 2002, dated 2010).
Where two headings read alike, the source gives them in different places.

Experiment: Reactivity with plastic-immobilized phospholipid (ELISA)
Conditions: read-out: EC50 of binding
Procedure: Phospholipids were dissolved in n-hexane to a concentration of 50 μg/ml. 100 μl of this solution was added to wells of 96-well microtiter plates. After evaporation of the solvent in air, the plates were blocked for 2 h with 10% fetal bovine serum diluted in DPBS containing 2 mM Ca^2+ (binding buffer).
9D2 antibody or annexin V were diluted in the binding buffer in the presence of 10% serum at an initial concentration of 6.7 nM. Serial two-fold dilutions were prepared in the plates (100 μl per well). The plates were then incubated for 2 h at room temperature. The plates were washed and the 9D2 and annexin V were detected by goat anti-rat IgM conjugated to HRP and rabbit anti-human annexin V followed by goat anti-rabbit IgG conjugated to HRP (all diluted 1:1000), respectively. Secondary reagents were detected by using chromogenic substrate OPD followed by reading plates at 490 nm using a microplate reader (Molecular Devices, Palo Alto, Calif.).
The specificity of the 9D2 antibody binding was validated by using control rat IgM of irrelevant specificity (Pharmingen, San Diego, Calif.). The specificity of annexin V binding to phospholipids, which is Ca^2+-dependent, was determined by diluting the reagent in the DPBS containing 5 mM EDTA. Additional negative controls consisted of washing the plates with the binding buffer containing 0.2% of a detergent Tween 20. This treatment extracts lipids, thus removing the phospholipid that was absorbed to plastic. Neither 9D2 antibody nor annexin V bound to detergent-washed plates.

Annexin V: high affinity PS binding ligand; natural ligand of anionic phospholipids and PE
EC50 (CL): 0.13 nM
EC50 (PA): 0.1 nM
EC50 (PC): > 8 nM
EC50 (PE): 0.1 nM
EC50 (PG): 0.25 nM
EC50 (PI): 0.05 nM
EC50 (PS): 0.1 nM
EC50 (SM): > 8 nM
